Reference: patent publication US20130078287A1 (Horizon Pharma USA, Inc., priority 2010, published 2013)
Marks after values point to notes of the source that are not given here.

How the values were obtained:
[1] = test system: subjects expected to require daily NSAID therapy; assay: REDUCE-2 study: endoscopically diagnosed UGI, gastric and duodenal ulcers; assay type: in vivo, human
Experimental: Subjects were deemed a treatment failure and terminated early from the study in the event they developed an endoscopically diagnosed UGI ulcer. Subjects who terminated early for reasons other than development of an endoscopically diagnosed UGI ulcer were to undergo an endoscopic examination at a termination visit that was conducted as soon as possible after administration of their final dose of study drug. The predefined population for primary analyses of ulcers was all subjects with ≧1 follow-up study endoscopy.

[2] = test system: subjects who completed REDUCE-1 or REDUCE-2 without ulcer; assay: Follow-on safety study (28 weeks) after REDUCE-1 or REDUCE-2: adverse events
[3] = REDUCE-2, 24 weeks, crude proportion
[4] = REDUCE-2, 24 weeks, crude proportion, listed as ibuprofen
[5] = REDUCE-2, 24 weeks, life table estimate
[6] = REDUCE-2, 24 weeks, life table estimate, listed as ibuprofen
[7] = REDUCE-2, early terminations imputed as having an ulcer
[8] = TEAE, follow-on study, Preferred Term
[9] = TEAE, follow-on study, System Organ Class

## CC(C)Cc1ccc(C(C)C(=O)O)cc1 (centres unmarked) [Ibuprofen, 2-(p-isobutylphenyl)propionic acid]
[1]; [3]
  Proportion of subjects with Duodenal Ulcer: 9/190 (4.7%);
  Proportion of subjects with Gastric Ulcer: 34/190 (17.9%);
  Proportion of subjects with UGI Ulcer: 38/190 (20%);
  UGI Ulcer: Subjects with Low-dose Aspirin Use: 6/23 (26.1%);
  UGI Ulcer: Subjects with Prior Ulcer: 2/11 (18.2%);
[1]; [4]
  Proportion of subjects with Duodenal Ulcer: 4.7%
  Proportion of subjects with Gastric Ulcer: 17.9%
  Proportion of subjects with UGI Ulcer: 20.0%
[1]; [5]
  Proportion of subjects with Duodenal Ulcer: 6.6%
  Proportion of subjects with Gastric Ulcer: 19.7%
  Proportion of subjects with UGI Ulcer: 22.6%
  UGI Ulcer: Subjects with Prior Ulcer: 20.0%
[1]; [6]
  Proportion of subjects with Duodenal Ulcer: 6.6%
  Proportion of subjects with Gastric Ulcer: 19.7%
  Proportion of subjects with UGI Ulcer: 22.6%
[1]; REDUCE-2, early drop-outs imputed as treatment failures
  Crude ulcer rate, UGI ulcers: 25.3%
[1]; [7]
  Crude ulcer rate, duodenal ulcer: 10.1%
  Crude ulcer rate, gastric ulcer: 23.2%
[2]; Follow-on Study
  AEs Leading to Discontinuation, Incidence (%): 2.1%
  AEs by Relatedness: Possibly Related, Incidence (%): 8.5%
  AEs by Relatedness: Probably Not Related, Incidence (%): 25.5%
  AEs by Severity: Life Threatening, Incidence (%): 0.0%
  AEs by Severity: Mild, Incidence (%): 10.6%
  AEs by Severity: Moderate, Incidence (%): 19.1%
  AEs by Severity: Severe, Incidence (%): 4.3%
  Abdominal Pain Upper, Incidence (%): 0.0 (0) %
  Abdominal Tenderness, Incidence %: 2.1 (0) %
  Any GI Event, Incidence (%): 4.3 (2)* %
  Constipation, Incidence (%): 0.0 (0) %
  Deaths, Incidence %: 0.0(0) %
  Diarrhea, Incidence (%): 2.1 (1) %
  Dyspepsia, Incidence (%): 0.0 (0) %
  General Disorders/Administrative Site Conditions, Incidence (%): 4.3(2) %
  Hepatobiliary Disorders, Incidence (%): 2.1(1) %
  Hypertension, Incidence (%): 0.0(0) %
  Infections/Infestations, Incidence (%): 14.9(7) %
  Injury, Poisoning, Procedural Complications, Incidence (%): 4.3(2) %
  Metabolism and Nutrition Disorders, Incidence %: 8.5(4)* %
  Musculoskeletal/connective Tissue Disorders, Incidence (%): 2.1(1) %
  Nausea, Incidence (%): 0.0 (0) %
  Nervous System Disorders, Incidence (%): 4.3(2) %
  Respiratory, Thoracic and Mediastinal Disorders, Incidence (%): 2.1(1) %
  SAEs leading to discontinuation, Incidence %: 0.0(0) %
  Subjects with at least one AE, Incidence (%): 34.0%
  Total SAEs, Incidence %: 4.3(2) %
  Withdrawals due to GI, Incidence (%): 0.0 (0) %
[2]; [8]
  Abdominal discomfort: 2.1 (1) % (n)
  Abdominal distension: 0.0 (0) % (n)
  Abdominal pain: 2.1 (1) % (n)
  Abdominal pain upper: 2.1 (1) % (n)
  Abdominal tenderness: 2.1 (1) % (n)
  Accidental overdose: 2.1 (1) % (n)
  Anaemia: 2.1 (1) % (n)
  Animal bite: 0.0 (0) % (n)
  Anxiety: 2.1 (1) % (n)
  Arthralgia: 4.3 (2) % (n)
  Asthma: 0.0 (0) % (n)
  Back pain: 0.0 (0) % (n)
  Blood creatinine increased: 0.0 (0) % (n)
  Blood pressure increased: 0.0 (0) % (n)
  Bronchitis: 2.1 (1) % (n)
  Bronchitis acute: 2.1 (1) % (n)
  Carpal tunnel syndrome: 0.0 (0) % (n)
  Cataract: 2.1 (1) % (n)
  Cholelithiasis: 2.1 (1) % (n)
  Conjunctivitis: 2.1 (1) % (n)
  Constipation: 4.3 (2) % (n)
  Contusion: 2.1 (1) % (n)
  Cough: 0.0 (0) % (n)
  Dermatitis: 2.1 (1) % (n)
  Dermatitis contact: 2.1 (1) % (n)
  Diabetes mellitus: 2.1 (1) % (n)
  Diabetes mellitus non-insulin-dependent: 2.1 (1) % (n)
  Diarrhoea: 8.5 (4) % (n)
  Dizziness: 2.1 (1) % (n)
  Dyspepsia: 2.1 (1) % (n)
  Ear infection: 2.1 (1) % (n)
  Eczema: 2.1 (1) % (n)
  Fall: 2.1 (1) % (n)
  Flatulence: 2.1 (1) % (n)
  Folliculitis: 2.1 (1) % (n)
  Foot fracture: 2.1 (1) % (n)
  Gait disturbance: 2.1 (1) % (n)
  Gastritis: 2.1 (1) % (n)
  Gastroenteritis: 0.0 (0) % (n)
  Gastroenteritis viral: 4.3 (2) % (n)
  Gastrooesophageal reflux disease: 2.1 (1) % (n)
  Headache: 0.0 (0) % (n)
  Hypercholesterolaemia: 2.1 (1) % (n)
  Hyperglycaemia: 2.1 (1) % (n)
  Hyperlipidaemia: 2.1 (1) % (n)
  Hyperosmolar state: 2.1 (1) % (n)
  Hypertension: 2.1 (1) % (n)
  Influenza: 2.1 (1) % (n)
  Intestinal spasm: 2.1 (1) % (n)
  Joint injury: 2.1 (1) % (n)
  Joint sprain: 2.1 (1) % (n)
  Joint swelling: 2.1 (1) % (n)
  Knee deformity: 2.1 (1) % (n)
  Laryngitis: 4.3 (2) % (n)
  Limb crushing injury: 2.1 (1) % (n)
  Lower respiratory tract infection: 4.3 (2) % (n)
  Migraine: 2.1 (1) % (n)
  Mood swings: 2.1 (1) % (n)
  Muscle spasms: 0.0 (0) % (n)
  Musculoskeletal pain: 4.3 (2) % (n)
  Nasopharyngitis: 2.1 (1) % (n)
  Nausea: 4.3 (2) % (n)
  Neck injury: 2.1 (1) % (n)
  Neck pain: 2.1 (1) % (n)
  Nerve compression: 2.1 (1) % (n)
  Non-cardiac chest pain: 2.1 (1) % (n)
  Oedema peripheral: 6.4 (3) % (n)
  Oesophageal stenosis: 2.1 (1) % (n)
  Otitis media: 0.0 (0) % (n)
  Pharyngolaryngeal pain: 2.1 (1) % (n)
  Plantar fasciitis: 2.1 (1) % (n)
  Pneumonia: 2.1 (1) % (n)
  Rib fracture: 4.3 (2) % (n)
  Road traffic accident: 2.1 (1) % (n)
  Sinusitis: 2.1 (1) % (n)
  Skin laceration: 2.1 (1) % (n)
  Stomach discomfort: 0.0 (0) % (n)
  Swelling face: 0.0 (0) % (n)
  Tendon injury: 0.0 (0) % (n)
  Tendonitis: 2.1 (1) % (n)
  Throat irritation: 2.1 (1) % (n)
  Tinnitus: 2.1 (1) % (n)
  Tooth abscess: 0.0 (0) % (n)
  Tooth infection: 2.1 (1) % (n)
  Toothache: 2.1 (1) % (n)
  Traumatic brain injury: 2.1 (1) % (n)
  Upper respiratory tract infection: 6.4 (3) % (n)
  Urinary tract infection: 0.0 (0) % (n)
  Urticaria: 2.1 (1) % (n)
  Viral upper respiratory tract infection: 2.1 (1) % (n)
  Vomiting: 4.3 (2) % (n)
  Wheezing: 0.0 (0) % (n)
[2]; [9]
  Ear and labyrinth disorders: 2.1 (1) % (n)
  Eye disorders: 4.3 (2) % (n)
  Gastrointestinal disorders: 23.4 (11) % (n)
  General disorders and administration site conditions: 6.4 (3) % (n)
  Hepatobiliary disorders: 2.1 (1) % (n)
  Immune system disorders: 0.0 (0) % (n)
  Infections and infestations: 36.2 (17) % (n)
  Injury, poisoning and procedural complications: 17.0 (8) % (n)
  Investigations: 0.0 (0) % (n)
  Metabolism and nutrition disorders: 8.5 (4) % (n)
  Neoplasms benign, malignant and unspecified (incl. cysts and polyps): 0.0 (0) % (n)
  Nervous system disorders: 6.4 (3) % (n)
  Psychiatric disorders: 4.3 (2) % (n)
  Renal and urinary disorders: 0.0 (0) % (n)
  Respiratory, thoracic and mediastinal disorders: 4.3 (2) % (n)
  Vascular disorders: 2.1 (1) % (n)
[2]; follow-on study, safety follow-on population, HZT-501 N = 132, Ibuprofen N = 47
  Total Subjects With at Least One TEAE: 68.1 (32) % (n)
